Test results taken from US10029984B2, “Mono- or di-substituted indole derivatives as dengue viral replication inhibitors” (Janssen Pharmaceuticals, Inc., priority 2015, dated 2018).

What was measured:
DENV-2 16681 strain = assay: DENV-2 antiviral assay (eGFP-labeled virus in Vero cells); type: cell-based, Dengue virus; conditions: DENV-2 16681 eGFP, MOI 0.5, 3 days
How it was run: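 Vero cells were pre-plated with compound overnight, then infected with eGFP-labeled DENV-2 16681 at MOI 0.5 and incubated 3 days at 37 °C. eGFP fluorescence read by automated microscopy; 9-point 4-fold dilutions (25 μM–0.00038 μM final) in quadruplicate, EC50 by linear interpolation versus virus and cell controls.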

in vitro [1] = type: cell-based; conditions: African green monkey, CC50
How it was run: (§1)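 On the same plates after eGFP read-out, resazurin was added and cells incubated a further 5 h at 37 °C, 5% CO2; resorufin fluorescence read with 530 nm excitation. CC50 is the concentration halving resazurin conversion versus cell control; SI = CC50/EC50.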

DENV-1 strain TC974#666 = assay: Tetravalent RT-qPCR assay Protocol A, serotype 1; type: cell-based; conditions: Dengue virus, DENV1, 72 h; RT-qPCR serotype 1 TC974#666, Vero cells, day 3
Description: (§2) The antiviral activity of the compounds of the invention was tested against DENV-1 strain TC974#666 (NCPV; Table 6), DENV-2 strain 16681 (Table 7), DENV-3 strain H87 (NCPV; Table 8) and DENV-4 strains H241 (NCPV; Table 9) in a RT-qPCR assay. Therefore, Vero cells were infected with either DENV-1, or -2, or -3, or -4 in the presence or absence of test compounds. At day 3 post-infection, the cells were lysed and cell lysates were used to prepare cDNA of both a viral target (the 3′UTR of DENV; table 2) and a cellular reference gene (β-actin, table 2). Subsequently, a duplex real time PCR was performed on a Lightcycler480 instrument. The generated Cp value is inversely proportional to the amount of RNA expression of these targets. Inhibition of DENV replication by a test compound result in a shift of Cp's for the 3′UTR gene. On the other hand, if a test compound is toxic to the cells, a similar effect on β-actin expression will be observed. The comparative ΔΔCp method is used to calculate EC50, which is based on the relative gene expression of the target gene (3′UTR) normalized with the cellular housekeeping gene (β-actin).
(§3) The culture medium consisted of minimal essential medium supplemented with 2% of heat-inactivated fetal calf serum, 0.04% gentamycin (50 mg/mL) and 2 mM of L-glutamine. Vero cells, obtained from ECACC, were suspended in culture medium and 75 μL/well was added in 96-well plates (10000 cells/well), which already contain the antiviral compounds. Typically, these plates contain a 4-fold serial dilution of 9 dilution steps of the test compound at 200 times the final concentration in 100% DMSO (500 nL; final concentration range: 25 μM-0.00038 μM). In addition, each plate contains wells which are assigned as virus controls (containing cells and virus in the absence of compound) and cell controls (containing cells in the absence of virus and compound). Once the cells were added in the plates, the plates were incubated in a fully humidified incubator (37° C., 5% CO2) until the next day. Then, DENV-1 strain TC974#666 at an MOI of 0.6, DENV-2 strain 16681 at an MOI of 0.01, DENV-3 strain H87 at an MOI of 1.0 and DENV-4 strains H241 at an MOI of 0.2 and SG/06K2270DK1/2005 at an MOI of 0.16, were added. Therefore, 25 μL of virus suspension was added to all the wells containing test compound and to the wells assigned as virus control. In parallel, 25 μL of culture medium was added to the cell controls. Next, the plates were incubated for 3 days in a fully humidified incubator (37° C., 5% CO2). After 3 days, the supernatant was removed from the wells and the cells were washed twice with ice-cold PBS (˜100 μL). The cell pellets within the 96-well plates were stored at −80° C. for at least 1 day. Next, RNA was extracted using the Cells-to-CT™ lysis kit, according to the manufacture's guideline (Applied Biosystems). The cell lysates can be stored at −80° C. or immediately used in the reverse transcription step.
(§4) In preparation of the reverse transcription step, mix A (table 3A) was prepared and 7.57 μL/well was dispensed in a 96-well plate. After addition of 5 μL of the cell lysates, a five minute denaturation step at 75° C. was performed (table 3B). Afterwards, 7.43 μL of mix B was added (table 3C) and the reverse transcription step was initiated (table 3D) to generate cDNA.
(§5) Finally, a RT-qPCR mix was prepared, mix C (table 4A), dispensed in 96-well LightCycler qPCR plates to which 3 μL of cDNA was added and the qPCR was performed according to the conditions in table 4B on a LightCycler 480. Using the LightCycler software and an in-house LIMS system, dose response curves for each compound were calculated and the half maximal effective concentration (EC50) and the half maximal cytotoxic concentration (CC50) were determined.

DENV-2 strain 16681 = assay: Tetravalent RT-qPCR assay Protocol A, serotype 2; type: cell-based; conditions: Dengue virus, DENV2, 72 h; RT-qPCR serotype 2 16681, Vero cells, day 3
Description: as §2, §3, §4, §5

DENV-3 strain H87 = assay: Tetravalent RT-qPCR assay Protocol A, serotype 3; type: cell-based; conditions: Dengue virus, DENV3, 72 h; RT-qPCR serotype 3 H87, Vero cells, day 3
Description: as §2, §3, §4, §5

DENV-4 strains H241 = assay: Tetravalent RT-qPCR assay Protocol A, serotype 4; type: cell-based; conditions: Dengue virus, DENV4, 72 h; RT-qPCR serotype 4 H241, Vero cells, day 3
Description: as §2, §3, §4, §5

in vitro [2] = type: cell-based; conditions: African green monkey, CC50; remark: listed apart in the source
Description: as §2, §3, §5

Vero cells [3] = assay: in vitro; type: cell-based; conditions: African green monkey
How it was run: as §1

Vero cells [4] = assay: in vitro; type: cell-based; conditions: African green monkey, 3 days
Description: as §2, §3, §5

Row | SMILES | EC50 (DENV-2 16681 strain; listed as 2A*) | CC50 (in vitro [1]) | EC50 (DENV-1 strain TC974#666) | EC50 (DENV-2 strain 16681) | EC50 (DENV-3 strain H87) | EC50 (DENV-4 strains H241) | CC50 at 3 days (in vitro [2]) | EC50 (DENV-2 16681 strain; listed as 9A*) | CC50 (Vero cells [3]) | EC50 (DENV-2 16681 strain; listed as 11A*) | EC50 (DENV-2 16681 strain; listed as 13B*) | CC50 (Vero cells [4]) | EC50 (DENV-2 16681 strain; listed as 14A*) | EC50 (DENV-2 16681 strain; listed as 15A*) | EC50 (DENV-2 16681 strain; listed as 16A*) | EC50 (DENV-2 16681 strain; listed as 17B*) | EC50 (DENV-2 16681 strain; listed as 18A*)
1 | COc1cc(NC(C(=O)c2c[nH]c3c(C)c(F)ccc23)c2ccc(F)cc2OC)cc(S(C)(=O)=O)c1 (single isomer, unassigned) [Enantiomer 2A, 2-(4-fluoro-2-methoxyphenyl)-1-(6-fluoro-7-methyl-1H-indol-3-yl)-2-((3-methoxy-5-(methylsulfonyl)phenyl)amino)ethanone] | 0.77 nM | 6100 nM | 5.85 nM | 0.856 nM | 58.4 nM | 122 nM | 2920 nM | – | – | – | – | – | – | – | – | – | –
2 | COc1cc(NC(C(=O)c2c[nH]c3cc(C)c(F)cc23)c2ccc(F)cc2OC)cc(S(C)(=O)=O)c1 (single isomer, unassigned) [Enantiomer 9A, 2-(4-fluoro-2-methoxyphenyl)-1-(5-fluoro-6-methyl-1H-indol-3-yl)-2-((3-methoxy-5-(methylsulfonyl)phenyl)amino)ethanone] | – | – | 10 nM | 1.14 nM | 104 nM | 241 nM | 4040 nM | 1.1 nM | 4800 nM | – | – | – | – | – | – | – | –
3 | COc1cc(NC(C(=O)c2c[nH]c3cc(OC)c(F)cc23)c2ccc(F)cc2OC)cc(S(C)(=O)=O)c1 (single isomer, unassigned) [Enantiomer 11A, 2-(4-fluoro-2-methoxyphenyl)-1-(5-fluoro-6-methoxy-1H-indol-3-yl)-2-((3-methoxy-5-(methylsulfonyl)phenyl)amino)ethanone] | – | – | 10.9 nM | 1.09 nM | 93 nM | 226 nM | 4380 nM | – | 6600 nM | 1.1 nM | – | – | – | – | – | – | –
4 | COc1cc(NC(C(=O)c2c[nH]c3c(F)c(F)ccc23)c2ccc(F)cc2OC)cc(S(C)(=O)=O)c1 (single isomer, unassigned) [Enantiomer 13B, 1-(6,7-difluoro-1H-indol-3-yl)-2-(4-fluoro-2-methoxyphenyl)-2-((3-methoxy-5-(methylsulfonyl)phenyl)amino)ethanone] | – | – | – | 0.675 nM | – | 230 nM | 3710 nM | – | 6700 nM | – | 1.1 nM | 2600 nM | – | – | – | – | –
5 | COc1cc(NC(C(=O)c2c[nH]c3cc(F)c(C)cc23)c2ccc(F)cc2OC)cc(S(C)(=O)=O)c1 (single isomer, unassigned) [Enantiomer 14A, 2-(4-fluoro-2-methoxyphenyl)-1-(6-fluoro-5-methyl-1H-indol-3-yl)-2-((3-methoxy-5-(methylsulfonyl)phenyl)amino)ethanone] | – | – | 1.4 nM | 0.567 nM | 13.1 nM | 69.4 nM | 2420 nM | – | 3400 nM | – | – | – | 0.44 nM | – | – | – | –
6 | COc1cc(NC(C(=O)c2c[nH]c3ccc(C)cc23)c2ccc(F)cc2OC)cc(S(C)(=O)=O)c1 (single isomer, unassigned) [Enantiomer 15A, 2-(4-fluoro-2-methoxyphenyl)-2-((3-methoxy-5-(methylsulfonyl)phenyl)amino)-1-(5-methyl-1H-indol-3-yl)ethanone] | – | – | 3.51 nM | 1.02 nM | 22.1 nM | 91 nM | > 2500 nM | – | 5400 nM | – | – | – | – | 0.8 nM | – | – | –
7 | COc1cc(NC(C(=O)c2c[nH]c3cc(OC)c(Cl)cc23)c2ccc(F)cc2OC)cc(S(C)(=O)=O)c1 (single isomer, unassigned) [Enantiomer 16A, 1-(5-chloro-6-methoxy-1H-indol-3-yl)-2-(4-fluoro-2-methoxyphenyl)-2-((3-methoxy-5-(methylsulfonyl)phenyl)amino)ethanone] | – | – | 3.26 nM | 0.188 nM | 25.4 nM | 80.1 nM | 3170 nM | – | 3700 nM | – | – | – | – | – | 0.42 nM | – | –
8 | COc1cc(NC(C(=O)c2c[nH]c3ccc(C(F)(F)F)cc23)c2ccc(F)cc2OC)cc(S(C)(=O)=O)c1 (single isomer, unassigned) [Enantiomer 17B, 2-(4-fluoro-2-methoxyphenyl)-2-((3-methoxy-5-(methylsulfonyl)phenyl)amino)-1-(5-(trifluoromethyl)-1H-indol-3-yl)ethanone] | – | – | 0.478 nM | 0.0921 nM | 7.28 nM | 21.3 nM | 1610 nM | – | 3600 nM | – | – | – | – | – | – | 0.2 nM | –
9 | COc1cc(NC(C(=O)c2c[nH]c3ccc(OC(F)(F)F)cc23)c2ccc(F)cc2OC)cc(S(C)(=O)=O)c1 (single isomer, unassigned) [Enantiomer 18A, 2-(4-fluoro-2-methoxyphenyl)-2-((3-methoxy-5-(methylsulfonyl)phenyl)amino)-1-(5-(trifluoromethoxy)-1H-indol-3-yl)ethanone] | – | – | 0.357 nM | 0.14 nM | 7.54 nM | 18.2 nM | 3010 nM | – | 3100 nM | – | – | – | – | – | – | – | 0.086 nM
